{"source": "patent US20240252493A1", "about": "“Apelin Receptor Modulators for Treating Age-Related Muscle Conditions” (BIOAGE LABS, INC., priority 2021, published 2024)", "key": {"[1]": {"system": "aged (24-month-old) C57BL/6 mice", "assay": "Activity monitoring wheel test (frailty study)", "type": "in vivo", "settings": "24-month-old mice", "description": "The animals were housed with access to voluntary running wheels that wirelessly transmit running data to a computer for analysis. Voluntary running wheel activity levels were measured daily, and body weights were measured every 2 weeks.\nThe study concluded on Study Day 83. Activity wheel monitoring started on Study Day 1 and ended on Study Day 83 (Phase Day 64). The data was analyzed at the end of the study. […] For the frailty portion of the study, mice were assessed using an activity monitoring wheel which was monitored passively with a computer monitoring system. […]\nThe activity-monitoring wheel is a running disk that monitors rotations. […] Activity was monitored passively and wirelessly with a computer monitoring system. Running wheel activity levels were monitored daily. […] Mouse activity levels were measured as the number of wheel revolutions per day for each mouse and converted into a daily count of kilometers run using the diameter of the wheel. Within each experimental group, the daily median value for activity was calculated. […] The daily differences between the distances run in each group were calculated and tested for an increasing trend using Kendall's rank correlation tau."}, "pAkt": {"system": "pAkt", "assay": "Western blot of pAkt in soleus after oral BGE-105", "type": "in vivo", "settings": "mice, oral 45 mg/kg, vs vehicle", "text": "Administration of an apelin receptor agonist can induce the phosphorylation and activation of AMPK in heart tissue. Tissue samples were lysed using T-PER tissue protein extraction reagent (Thermo Fisher Scientific #78510) containing EDTA and protease/phosphatase inhibitors on the Omni Bead Ruptor 12 Homogenizer. Total protein was extracted then quantified using Pierce™ BCA Protein Assay Kit. Loaded equal amounts of total protein per lane on a 4-12% SDS-PAGE gel and transferred to PVDF membrane. Membranes were blocked and blotted with anti-phospho-AMPKα-Thr172 (Cell Signaling Technology, CST #2535), total-AMPKα (CST #2532), anti-phospho-Akt-SeR^473 (CST #4060), total-Akt (CST #4685), anti-phospho-ERK-1/2-Thr202/Tyr204 of Erk1 and Thr185/Tyr187 of Erk2 (CST #4370), total-ERK-1/2 (CST #9107) or anti-APLNR receptor (abcam, ab214369) antibodies. Band intensities were normalized to loading control anti-β-Actin (CST #3700) or anti-GAPDH (abcam, ab181602) antibodies. Immunoreactive proteins were detected using SuperSignal™ West Femto Substrate (Thermo Fisher Scientific #34095) and quantified by Image Lab™ software (Bio-Rad Laboratories, Inc.).\nApelin can induce the phosphorylation of Akt in the soleus muscle and improve glucose homeostasis. […]"}, "25-HMC": {"system": "25-HMC", "assay": "Proliferation of immortalized human muscle cells, younger donor", "type": "cell-based", "settings": "for cell proliferation (measured at day 4): younger subject cells", "description": "Immortalized human cells from male donors (25-HMC) […] (79-HMC) are grown from the proliferation stage until they become 80% confluent, differentiate, and become myotubes. […] Early proliferation markers (Pax7, Myf5, MyoD, and MyoG were assessed via RT-PCR (FIG. 8D to 8K)"}, "[2]": {"system": "Twenty-month-old male C57/B16 mice", "assay": "Disuse-induced muscle atrophy (hindlimb casting) in aged mice", "type": "in vivo", "text": "Limb immobilization causes a loss of gross skeletal muscle mass accompanied by a significant decrease in apelin transcript levels.\nOne week into the treatment, mice underwent modified hindlimb casting on one limb. Mice were anesthetized with isoflurane inhalation and the hindlimb wiped with povidone-iodine, then ethanol, and loosely wrapped in surgical gauze. A custom-made plastic immobilization device was placed on the limb, with the foot in full extension, so as to result in the maximal in vivo unloading of the plantarflexor group. The device was fixed to the hindlimb using Vetbond and the animal returned to its cage. After 3 weeks of treatment following casting, mice were euthanized 1 hour after the final ZT1 dose, and tissues isolated, weighed, then flash frozen in liquid nitrogen for subsequent western blot analysis."}, "apelin receptor": {"system": "apelin receptor", "assay": "Apelin receptor levels after one month of BGE-105 in immobilized aged mice", "type": "in vivo", "settings": "after one month of treatment at 50 mg/kg BID"}, "[3]": {"system": "immobilized human muscles", "assay": "Bed rest study in healthy older adult humans", "type": "in vivo", "settings": "healthy older adults, 10 days bed rest, 200 mg a day", "text": "Two groups of healthy older adult humans (e.g., N=10 per group) who are moderately active remain in bed continuously for 10 days, except for toileting, and they consume a eucaloric diet providing the recommended dietary allowance for protein (0.8 g/kg of protein per day). […] Measurements before and after bed rest include muscle function and protein synthesis."}, "[4]": {"assay": "pH of BGE-105 dissolved in deionized water", "type": "physicochemical", "settings": "275 ug/mL in deionized water", "description": "BGE-105 was administered in drinking water consumed ad libitum. The compound is mildly acidic when dissolved, resulting in a pH 4.5 solution. The deionized water was adjusted to pH 8.5 by adding 1N NaOH. The vehicle control group consumed water (ad libitum) of the same pH without drug."}, "[5]": {"settings": "20-month-old immobilized mice, 50 mg/kg BID, 50 mg/kg"}}, "note": "“Also recorded” adds a separate entry of the source.", "data": [{"smiles": "COc1cccc(OC)c1-n1c(NS(=O)(=O)[C@@H](C)[C@H](C)c2ncc(C)cn2)nnc1-c1cncc(C)c1", "note": "[BGE-105, (2S,3R)—N-(4-(2,6-dimethoxyphenyl)-5-(5-methyl-3-pyridinyl)-4H-1,2,4-triazol-3-yl)-3-(5-methyl-2-pyrimidinyl)-2-butanesulfonamide]", "values": [{"measurement": "voluntary running wheel activity vs age-matched controls", "setting": "[1]; 275 ug/mL in drinking water ad libitum, 64 days", "value": "statistically significant increase in voluntary motor activity; also recorded: significantly more active; also recorded: decreased significantly less"}, {"measurement": "distance run more than vehicle-treated mice at end of experimental period", "setting": "[1]; 275 ug/mL in drinking water, both experiments, on average", "value": "at least 1 km/day"}, {"measurement": "pAkt levels in the soleus", "setting": "pAkt", "value": "increased levels; also recorded: marginally significant increase"}, {"measurement": "cell proliferation, short-term treatment", "setting": "25-HMC; young donor cells, day 0 to day 4 post seeding", "value": "significant increase of cell proliferation"}, {"measurement": "cell proliferation (measured at day 4)", "setting": "25-HMC; 5 nM", "value": "increase"}, {"measurement": "cell proliferation (measured at day 4)", "setting": "25-HMC; 50 nM", "value": "significant increase in cell proliferation"}, {"measurement": "extensor digitorum longus (EDL) muscle weight / atrophy", "setting": "[2]; [5]", "value": "did not measurably atrophy; also recorded: near significant improvement in muscle weight; also recorded: near significant decrease in the percent atrophy"}, {"measurement": "gastrocnemius atrophy", "setting": "[2]; [5]", "value": "less effective; also recorded: no improvement"}, {"measurement": "soleus muscle weight / atrophy", "setting": "[2]; [5]", "value": "modest rescue in atrophy; also recorded: near significant improvement in muscle weight; also recorded: marginal improvement in the percent atrophy"}, {"measurement": "tibialis anterior muscle weight / percent atrophy vs vehicle", "setting": "[2]; [5]", "value": "significant improvement in maintaining muscle weight; also recorded: significant decrease in the percent atrophy"}, {"measurement": "decrease in wet weight of tibialis anterior (TA) muscle", "setting": "[2]; casted limb, 50 mg/kg BID P.O., 21 days immobilization", "value": 3, "unit": "%"}, {"measurement": "muscle atrophy / loss of muscle mass induced by immobilization", "setting": "[2]; immobilized aged mice, orally dosed, vs vehicle", "value": "significantly reduced muscle atrophy; also recorded: protected against some loss of muscle mass"}, {"measurement": "apelin receptor levels", "setting": "apelin receptor", "value": "noticeable but non-significant drop"}, {"measurement": "muscle atrophy in immobilized human muscles", "setting": "[3]", "value": "prevent or attenuate muscle atrophy"}, {"measurement": "pH of solution when dissolved", "setting": "[4]", "value": 4.5}]}]}
